Assay results: ChEMBL document CHEMBL2203270, “POMA analyses as new efficient bioinformatics' platform to predict and optimise bioactivity of synthesized 3a,4-dihydro-3H-indeno[1,2-c]pyrazole-2-carboxamide/carbothioamide analogues” (Bioorg Med Chem Lett, 2012)
pIC50: −log10 of the molar value. Values after ≈ are worked out from the molar mass of the structure shown.

Key:
[1] = system: Human immunodeficiency virus 2; assay: Antiviral activity against HIV-2 ROD infected in MT4 cells assessed as protection against virus-induced cytopathicity relative to control; assay type: functional; settings: Human immunodeficiency virus 2, ISOLATE ROD
[2] = system: Human immunodeficiency virus 2; assay: Antiviral activity against HIV-2 ROD infected in MT4 cells assessed as inhibition of virus-induced cytopathicity; assay type: functional, organism-based; settings: Human immunodeficiency virus 2, ISOLATE ROD
[3] = system: Human immunodeficiency virus 1; assay: Antiviral activity against HIV-1 3B infected in MT4 cells assessed as protection against virus-induced cytopathicity relative to control; assay type: functional; settings: Human immunodeficiency virus 1, 3B
[4] = system: Human immunodeficiency virus 1; assay: Antiviral activity against HIV-1 3B infected in MT4 cells assessed as inhibition of virus-induced cytopathicity; assay type: functional, organism-based; settings: Human immunodeficiency virus 1, 3B
[5] = Cytotoxicity against mock-infected human MT4 cells assessed as decrease in cell viability by MTT assay; assay type: cell-based
[6] = system: Escherichia coli; assay: Antimicrobial activity against Escherichia coli NCIM 5051 by broth dilution technique; assay type: functional
[7] = system: Bacillus subtilis; assay: Antimicrobial activity against Bacillus subtilis NCIM 2439 by broth dilution technique; assay type: functional
[8] = system: Aspergillus niger; assay: Antimicrobial activity against Aspergillus niger NCIM 1196 by broth dilution technique; assay type: functional
[9] = system: Pseudomonas aeruginosa; assay: Antimicrobial activity against Pseudomonas aeruginosa ATCC 10145 by broth dilution technique; assay type: functional
[10] = system: Candida albicans; assay: Antimicrobial activity against Candida albicans NCIM 3471 by broth dilution technique; assay type: functional
[11] = system: Staphylococcus aureus; assay: Antimicrobial activity against Staphylococcus aureus NCIM 2079 by broth dilution technique; assay type: functional

SMILES: COc1ccc(C2C3Cc4cc(OC)c(OC)cc4C3=NN2C(=O)Nc2ccc(Cl)cc2)cc1OC (centres undefined)
- Emax [1]: 9%
- pIC50 [2]: < 3.97
- Emax [3]: 4%
- pIC50 [4]: < 3.97
- CC50 [5]: 106 µM

SMILES: COc1cc2c(cc1OC)C1=NN(C(N)=S)C(c3ccccc3)C1C2 (centres undefined)
- Emax [1]: 12%
- MBC [6]: > 512 µg/mL
- MIC [6]: 128 µg/mL (≈ 362 µM)
- MBC [7]: > 512 µg/mL
- MIC [7]: 256 µg/mL (≈ 724 µM)
- pIC50 [2]: < 4.55
- Emax [3]: 2%
- MFC [8]: > 512 µg/mL
- MIC [8]: 128 µg/mL (≈ 362 µM)
- MBC [9]: > 512 µg/mL
- MIC [9]: 256 µg/mL (≈ 724 µM)
- pIC50 [4]: < 4.55
- MFC [10]: > 512 µg/mL
- MIC [10]: 128 µg/mL (≈ 362 µM)
- CC50 [5]: 28.4 µM
- MBC [11]: > 512 µg/mL
- MIC [11]: 256 µg/mL (≈ 724 µM)

SMILES: COc1cc2c(cc1OC)C1=NN(C(N)=S)C(c3ccc(F)cc3)C1C2 (centres undefined)
- Emax [1]: 9%
- MBC [6]: 8 µg/mL (≈ 21.5 µM)
- MIC [6]: 4 µg/mL (≈ 10.8 µM)
- MBC [7]: 8 µg/mL (≈ 21.5 µM)
- MIC [7]: 4 µg/mL (≈ 10.8 µM)
- pIC50 [2]: < 4.40
- Emax [3]: 5%
- MFC [8]: > 512 µg/mL
- MIC [8]: 64 µg/mL (≈ 172 µM)
- MBC [9]: 8 µg/mL (≈ 21.5 µM)
- MIC [9]: 4 µg/mL (≈ 10.8 µM)
- pIC50 [4]: < 4.40
- MFC [10]: > 512 µg/mL
- MIC [10]: 32 µg/mL (≈ 86.2 µM)
- CC50 [5]: 39.9 µM
- MBC [11]: 8 µg/mL (≈ 21.5 µM)
- MIC [11]: 4 µg/mL (≈ 10.8 µM)

SMILES: COc1cc2c(cc1OC)C1=NN(C(N)=S)C(c3ccccc3Cl)C1C2 (centres undefined)
- Emax [1]: 1%
- MBC [6]: 128 µg/mL (≈ 330 µM)
- MIC [6]: 8 µg/mL (≈ 20.6 µM)
- MBC [7]: 128 µg/mL (≈ 330 µM)
- MIC [7]: 16 µg/mL (≈ 41.2 µM)
- pIC50 [2]: < 5.16
- Emax [3]: 0%
- MFC [8]: > 512 µg/mL
- MIC [8]: 128 µg/mL (≈ 330 µM)
- MBC [9]: 256 µg/mL (≈ 660 µM)
- MIC [9]: 16 µg/mL (≈ 41.2 µM)
- pIC50 [4]: < 5.16
- MFC [10]: > 512 µg/mL
- MIC [10]: 64 µg/mL (≈ 165 µM)
- CC50 [5]: 6.87 µM
- MBC [11]: 128 µg/mL (≈ 330 µM)
- MIC [11]: 16 µg/mL (≈ 41.2 µM)

SMILES: COc1cc2c(cc1OC)C1=NN(C(=O)Nc3ccc(F)cc3)C(c3ccccc3)C1C2 (centres undefined)
- Emax [1]: 7%
- pIC50 [2]: < 4.16
- Emax [3]: 3%
- pIC50 [4]: < 4.16
- CC50 [5]: 68.6 µM

SMILES: COc1cc2c(cc1OC)C1=NN(C(=O)Nc3ccc(C)cc3C)C(c3ccc(F)cc3)C1C2 (centres undefined)
- Emax [1]: 12%
- pIC50 [2]: < 3.70
- Emax [3]: 4%
- pIC50 [4]: < 3.70
- CC50 [5]: 198 µM

SMILES: COc1ccc(C2C3Cc4cc(OC)c(OC)cc4C3=NN2C(N)=O)cc1 (centres undefined)
- Emax [1]: 6%
- MBC [6]: > 512 µg/mL
- MIC [6]: 32 µg/mL (≈ 87.1 µM)
- MBC [7]: > 512 µg/mL
- MIC [7]: 128 µg/mL (≈ 348 µM)
- pIC50 [2]: < 3.82
- Emax [3]: 3%
- MFC [8]: 8 µg/mL (≈ 21.8 µM)
- MIC [8]: 4 µg/mL (≈ 10.9 µM)
- MBC [9]: > 512 µg/mL
- MIC [9]: 64 µg/mL (≈ 174 µM)
- pIC50 [4]: < 3.82
- MFC [10]: 2 µg/mL (≈ 5.44 µM)
- MIC [10]: 2 µg/mL (≈ 5.44 µM)
- CC50 [5]: 150 µM
- MBC [11]: > 512 µg/mL
- MIC [11]: 64 µg/mL (≈ 174 µM)

SMILES: COc1cc2c(cc1OC)C1=NN(C(=O)Nc3ccc(Cl)cc3)C(c3ccccc3)C1C2 (centres undefined)
- Emax [1]: 19%
- pIC50 [2]: < 4.55
- Emax [3]: 2%
- pIC50 [4]: < 4.55
- CC50 [5]: 28.4 µM

SMILES: COc1ccc(C2C3Cc4cc(OC)c(OC)cc4C3=NN2C(=O)Nc2ccc(Br)cc2)cc1OC (centres undefined)
- Emax [1]: 39%
- pIC50 [2]: < 3.82
- Emax [3]: 15%
- pIC50 [4]: < 3.82
- CC50 [5]: 150 µM

SMILES: COc1cc2c(cc1OC)C1=NN(C(=O)Nc3ccc(F)cc3)C(c3ccccc3Cl)C1C2 (centres undefined)
- Emax [1]: 1%
- pIC50 [2]: < 5.04
- Emax [3]: 2%
- pIC50 [4]: < 5.04
- CC50 [5]: 9.09 µM

SMILES: COc1cc2c(cc1OC)C1=NN(C(=O)Nc3ccc(Br)cc3)C(c3ccncc3)C1C2 (centres undefined)
- Emax [1]: 1%
- pIC50 [2]: < 4.58
- Emax [3]: 1%
- pIC50 [4]: < 4.58
- CC50 [5]: 26.5 µM

SMILES: COc1ccc(C2C3Cc4cc(OC)c(OC)cc4C3=NN2C(=O)Nc2ccc(F)cc2)cc1 (centres undefined)
- Emax [1]: 9%
- pIC50 [2]: < 3.88
- Emax [3]: 7%
- pIC50 [4]: < 3.88
- CC50 [5]: 132 µM

SMILES: COc1cc2c(cc1OC)C1=NN(C(N)=O)C(c3ccccc3)C1C2 (centres undefined)
- Emax [1]: 11%
- MBC [6]: > 512 µg/mL
- MIC [6]: 256 µg/mL (≈ 759 µM)
- MBC [7]: > 512 µg/mL
- MIC [7]: 256 µg/mL (≈ 759 µM)
- pIC50 [2]: < 3.59
- Emax [3]: 2%
- MFC [8]: > 512 µg/mL
- MIC [8]: 256 µg/mL (≈ 759 µM)
- MBC [9]: > 512 µg/mL
- MIC [9]: 256 µg/mL (≈ 759 µM)
- pIC50 [4]: < 3.59
- MFC [10]: > 512 µg/mL
- MIC [10]: 128 µg/mL (≈ 379 µM)
- CC50 [5]: 259 µM
- MBC [11]: > 512 µg/mL
- MIC [11]: 256 µg/mL (≈ 759 µM)

SMILES: COc1ccc(C2C3Cc4cc(OC)c(OC)cc4C3=NN2C(=O)Nc2ccc(F)cc2)cc1OC (centres undefined)
- Emax [1]: 37%
- pIC50 [2]: < 3.68
- Emax [3]: 11%
- pIC50 [4]: < 3.68
- CC50 [5]: 208 µM

SMILES: COc1cc2c(cc1OC)C1=NN(C(N)=O)C(c3ccncc3)C1C2 (centres undefined)
- Emax [1]: 5%
- MBC [6]: > 512 µg/mL
- MIC [6]: 8 µg/mL (≈ 23.6 µM)
- MBC [7]: > 512 µg/mL
- MIC [7]: 16 µg/mL (≈ 47.3 µM)
- pIC50 [2]: < 4.39
- Emax [3]: 4%
- MFC [8]: > 512 µg/mL
- MIC [8]: 256 µg/mL (≈ 757 µM)
- MBC [9]: > 512 µg/mL
- MIC [9]: 16 µg/mL (≈ 47.3 µM)
- pIC50 [4]: < 4.39
- MFC [10]: > 512 µg/mL
- MIC [10]: 256 µg/mL (≈ 757 µM)
- CC50 [5]: 40.4 µM
- MBC [11]: > 512 µg/mL
- MIC [11]: 16 µg/mL (≈ 47.3 µM)

SMILES: COc1ccc(C2C3Cc4cc(OC)c(OC)cc4C3=NN2C(N)=S)cc1OC (centres undefined)
- Emax [1]: 11%
- MBC [6]: > 512 µg/mL
- MIC [6]: 64 µg/mL (≈ 155 µM)
- MBC [7]: > 512 µg/mL
- MIC [7]: 128 µg/mL (≈ 310 µM)
- pIC50 [2]: < 3.80
- Emax [3]: 4%
- MFC [8]: 512 µg/mL (≈ 1240 µM)
- MIC [8]: 16 µg/mL (≈ 38.7 µM)
- MBC [9]: > 512 µg/mL
- MIC [9]: 128 µg/mL (≈ 310 µM)
- pIC50 [4]: < 3.80
- MFC [10]: 512 µg/mL (≈ 1240 µM)
- MIC [10]: 16 µg/mL (≈ 38.7 µM)
- CC50 [5]: 158 µM
- MBC [11]: > 512 µg/mL
- MIC [11]: 128 µg/mL (≈ 310 µM)

SMILES: COc1ccc(C2C3Cc4cc(OC)c(OC)cc4C3=NN2C(=O)Nc2c(C)cccc2C)cc1OC (centres undefined)
- Emax [1]: 37%
- pIC50 [2]: < 3.74
- Emax [3]: 11%
- pIC50 [4]: < 3.74
- CC50 [5]: 182 µM
